From patent US20120083471A1, “Novel Compounds, Pharmaceutical Compositions Containing Same, Methods of Use for Same, and Methods for Preparing Same” (priority 2008, published 2012) come the findings set out here.

SMILES strings stand for the structures. Read-outs that look alike come from different tables or passages of the source.

The IC50 is the concentration that inhibits the measured activity by half. The melting point is the temperature of the solid-liquid transition.

In one data set the target is T1, mtGPAT1 (Mus musculus, UniProt Q61586).
T1 construct: from tissue; host or cells: mitochondrial preparation
T1 sequence (Q61586 1-827): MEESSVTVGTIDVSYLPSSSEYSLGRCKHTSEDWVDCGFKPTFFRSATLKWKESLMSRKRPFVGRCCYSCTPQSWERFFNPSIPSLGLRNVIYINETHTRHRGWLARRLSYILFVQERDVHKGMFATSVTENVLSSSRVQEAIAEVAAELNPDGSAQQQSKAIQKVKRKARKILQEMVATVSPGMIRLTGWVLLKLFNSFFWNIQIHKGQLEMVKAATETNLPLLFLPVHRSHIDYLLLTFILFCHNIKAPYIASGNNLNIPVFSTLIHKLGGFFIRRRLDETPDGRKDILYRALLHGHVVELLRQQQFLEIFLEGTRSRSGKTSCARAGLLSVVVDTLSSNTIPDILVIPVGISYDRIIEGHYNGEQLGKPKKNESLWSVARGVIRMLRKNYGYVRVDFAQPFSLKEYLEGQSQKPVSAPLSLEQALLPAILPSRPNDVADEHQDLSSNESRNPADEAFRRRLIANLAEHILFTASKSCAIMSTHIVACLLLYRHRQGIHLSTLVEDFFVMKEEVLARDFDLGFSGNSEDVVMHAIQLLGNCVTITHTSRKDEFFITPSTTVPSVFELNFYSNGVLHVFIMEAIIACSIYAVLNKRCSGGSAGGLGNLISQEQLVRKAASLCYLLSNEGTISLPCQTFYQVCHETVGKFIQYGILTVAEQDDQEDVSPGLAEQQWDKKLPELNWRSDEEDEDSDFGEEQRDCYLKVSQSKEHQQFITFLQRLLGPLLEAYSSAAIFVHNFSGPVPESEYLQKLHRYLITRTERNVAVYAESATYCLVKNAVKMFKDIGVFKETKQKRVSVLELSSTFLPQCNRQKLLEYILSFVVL
Description: In vitro mtGPAT inhibition: acylation of 14C-glycerol 3-phosphate with palmitoyl-CoA, scintillation counting. In kind it is biochemical. As for the experimental part: The compounds produced as described above were evaluated for their ability to inhibit the acylation of glycerol-3-phosphate in vitro. The acylation reaction between ^14C-labelled glycerol-3-phosphate and palmitoyl-CoA, initiated by adding mtGPAT, was measured in the presence of varying concentrations of the inhibitor by scintillation counting as described in more detail below.
A mitochondrial preparation of glycerol 3-phosphate acyltransferase was added to the incubation mixture containing ^14C-labeled glycerol 3-phosphate, palmitoyl-CoA, and varying inhibitor concentrations to initiate the reaction. After ten min, the reaction was terminated by adding chloroform, methanol, and 1% perchloric acid. Five minutes later, more chloroform and perchloric acid were added, and the upper aqueous layer was removed. After washing three times with 1% perchloric acid, the organic layer was evaporated under nitrogen, and the amount of ^14C present was counted to determine the extent of reaction inhibition. Data points were recorded in triplicate, and IC50 values were calculated based on the amount of test inhibitor necessary to produce 50% of mtGPAT activity observed in the absence of inhibitor but in the presence of DMSO vehicle control.

For a further data set, the system named is FAO. Description: FAO (SC 150 and Max) entries of the compound data sheets.
Setting [1] is: Table 1, sulfonamides 5a-f and 13a-f, triplicate, read-out: IC50 (μM) ± SD, In Vitro Anti-mtGPAT1 Activity.
Where [2] appears, read: Table 3, sulfonamides 21a-c and 24a-f, triplicate, read-out: IC50 (μM) ± SD, In Vitro Anti-mtGPAT1 Activity.
The mark [3] stands for this setting: compounds 4a-t and 7a-t, read-out: GPAT IC50.
Where [4] appears, read: Table 2, sulfonamides 15a-i and 17a-f, triplicate, read-out: IC50 (μM) ± SD, In Vitro Anti-mtGPAT1 Activity.

`CCCCCS(=O)(=O)Nc1cccc(CP(=O)(O)O)c1` [Compound 13c, 3-(Pentylsulfonamido)benzylphosphonic acid] showed a melting point of 127 to 128 °C. Moreover, the half-inhibitory concentration (IC50) on mtGPAT1 (setting [1]) was 45.3 ± 9 µM.

`CCCCCS(=O)(=O)Nc1ccc(CP(=O)(O)O)cc1` [Compound 13e, 4-(Pentylsulfonamido)benzylphosphonic acid] returned a melting point of 198 to 200 °C. For the same molecule, on mtGPAT1 (setting [1]), the IC50 stood at 47.7 ± 9.6 µM.

The molecule `CCCCCS(=O)(=O)NCc1cccc(C(=O)O)c1` [Compound 5c, 3-(Pentylsulfonamidomethyl)benzoic acid] displayed a melting point of 160 to 161 °C. The 50% inhibitory concentration (IC50) on mtGPAT1 (setting [1]) came to 88.5 ± 1.7 µM.

For `CCCCCS(=O)(=O)NCc1ccccc1C(=O)O` [Compound 5e, 2-(Pentylsulfonamidomethyl)benzoic acid], the melting point was found to be 100 °C. In addition, the IC50 on mtGPAT1 (setting [1]) is 61.9 ± 13.5 µM.

The molecule `CCCCCCCCCCCCCCS(=O)(=O)Nc1ccccc1C(=O)O` [Compound 24b, 2-(Tetradecylsulfonamido)benzoic acid] registered a melting point of 120 to 122 °C. Further, the IC50 at mtGPAT1 (setting [2]) stood at 6.9 ± 0.5 µM.

For `CCCCCCCCCS(=O)(=O)NCc1ccccc1C(=O)O` [Compound 5f, 2-(Nonylsulfonamidomethyl)benzoic acid], the melting point lay in the range of 79 to 82 °C. Also, the IC50 at mtGPAT1 (setting [1]) worked out at 22.7 µM.

In the case of `CCCCCCCCS(=O)(=O)Nc1ccc(-c2ccc(C(C)=O)cc2)cc1C(=O)O`, the IC50 on mtGPAT1 (setting [3]) was determined as 702 µM. Also, the “FAO SC 150” value with FAO was “FAS (IC50) Not Tested CPT I Stim Not Tested FAO SC 150 Neg SA/MH (MIC) ug/ml”.

With `CCCCCCCCS(=O)(=O)Nc1ccc(F)cc1C(=O)O` [Compound 24f, 5-Fluoro-2-(octylsulfonamido)benzoic acid], the melting point lay in the range of 141 to 143 °C. Also, on mtGPAT1 (setting [2]), the concentration for half-maximal inhibition (IC50) was found to be 29.5 ± 2.6 µM.

For `CCCCCCCCS(=O)(=O)Nc1cc(-c2cccs2)ccc1C(=O)O`, the IC50 on mtGPAT1 (setting [3]) stood at 22.5 µM. Besides, the “FAO SC 150” value with FAO is “FAS (IC50) Not Tested CPT I Stim Not Tested FAO SC 150 Neg SA/MH (MIC) ug/ml”.

The molecule `CCCCCCCCCCCCCCCCS(=O)(=O)Nc1ccccc1C(=O)O` [Compound 24c, 2-(Hexadecylsulfonamido)benzoic acid] registered a melting point of 126 to 128 °C. For the same molecule, the IC50 at mtGPAT1 (setting [2]) turned out to be 7.8 ± 0.8 µM.

As to `CCCCCCCCS(=O)(=O)Nc1ccc(-c2ccccc2F)cc1C(=O)O`, the 50% inhibitory concentration (IC50) at mtGPAT1 (setting [3]) is 31.2 µM. Further, in the data set on FAO, the “FAO SC 150” value is recorded as “FAS (IC50) Not Tested CPT I Stim Not Tested FAO SC 150 Neg SA/MH (MIC) ug/ml”.

In the case of `CCCCCS(=O)(=O)NCc1ccc(C(=O)O)cc1` [Compound 5a, 4-(Pentylsulfonamidomethyl)benzoic acid], the melting point was in the range of 188 to 189 °C. Also, the IC50 at mtGPAT1 (setting [1]) was found to be 72 ± 1.7 µM.

As to `CCCCCCCCS(=O)(=O)Nc1cc(-c2ccc(OC)cc2)ccc1C(=O)O`, the 50% inhibitory concentration (IC50) on mtGPAT1 (setting [3]) is 16 µM. For the same molecule, in the data set with FAO, the “FAO SC 150” value is given as “FAS (IC50) Not Tested CPT I Stim Not Tested FAO SC 150 Neg SA/MH (MIC) ug/ml”.

As to `CCCCCCCCS(=O)(=O)Nc1ccc(-c2ccc(C#N)cc2)cc1C(=O)O`, on mtGPAT1 (setting [3]), the concentration for half-maximal inhibition (IC50) was determined as 24.6 µM. Moreover, the “FAO SC 150” value in the data set on FAO is “FAS (IC50) Not Tested CPT I Stim Not Tested FAO SC 150 Neg SA/MH (MIC) ug/ml”.

The molecule `CCCCCCCCCS(=O)(=O)Nc1cccc(C(=O)O)c1` [Compound 15d, 3-(Nonylsulfonamido)benzoic acid] showed a melting point of 183 to 184 °C. The IC50 at mtGPAT1 (setting [4]) was 24.2 ± 2.9 µM.

Molecule `CCCCCCCCCS(=O)(=O)NCc1cccc(C(=O)O)c1` [Compound 5d, 3-(Nonylsulfonamidomethyl)benzoic acid] had a melting point of 150 to 151 °C. The IC50 at mtGPAT1 (setting [1]) came out at 28.5 µM.

For `CCCCCCCCS(=O)(=O)Nc1cc(-c2ccc(Cl)cc2)ccc1C(=O)O`, the IC50 at mtGPAT1 (setting [3]) amounted to 18.4 µM. The “FAO SC 150” value in the data set with FAO is recorded as “FAS (IC50) Not Tested CPT I Stim Not Tested FAO SC 150 Neg SA/MH (MIC) ug/ml”.

For `CCCCCCCCS(=O)(=O)Nc1ccc(-c2ccccc2O)cc1C(=O)O`, at mtGPAT1 (setting [3]), the IC50 amounted to 63.4 µM. Also, the “FAO SC 150” value in the data set on FAO is “FAS (IC50) Not Tested CPT I Stim Not Tested FAO SC 150 Neg SA/MH (MIC) ug/ml”.

The molecule `CCCCCCCCS(=O)(=O)Nc1ccc(O)cc1C(=O)O` [Compound 24e, 5-Hydroxy-2-(octylsulfonamido)benzoic acid] showed a melting point of 142 to 144 °C. The IC50 at mtGPAT1 (setting [2]) was 38.2 ± 4.1 µM.

In the case of `CCCCCCCCS(=O)(=O)Nc1cc(-c2cccc(Cl)c2)ccc1C(=O)O`, the IC50 on mtGPAT1 (setting [3]) came out at 16 µM. Besides, the “FAO SC 150” value in the data set on FAO is “FAS (IC50) Not Tested CPT I Stim Not Tested FAO SC 150 Neg SA/MH (MIC) ug/ml”.

The molecule `O=C(O)c1ccccc1NS(=O)(=O)c1ccccc1` [Compound 15h, 2-(Phenylsulfonamido)benzoic acid] registered a melting point of 213 to 215 °C. At mtGPAT1 (setting [4]), the concentration for half-maximal inhibition (IC50) amounted to 40.5 ± 2.6 µM.

Turning to `CCCCCCCCS(=O)(=O)Nc1cc(-c2ccccc2Cl)ccc1C(=O)O`, the IC50 on mtGPAT1 (setting [3]) was 23.1 µM. Moreover, the “FAO SC 150” value in the data set on FAO is recorded as “FAS (IC50) Not Tested CPT I Stim Not Tested FAO SC 150 Neg SA/MH (MIC) ug/ml”.

On to `CCCCCCCCCS(=O)(=O)NCc1ccc(C(=O)O)cc1` [Compound 5b, 4-(Nonylsulfonamidomethyl)benzoic acid], for which the melting point was in the range of 178 to 180 °C. At mtGPAT1 (setting [1]), the IC50 turned out to be 43.9 µM.

Regarding `CCCCCCCCS(=O)(=O)Nc1ccc(-c2cccc(Cl)c2)cc1C(=O)O`, on mtGPAT1 (setting [3]), the IC50 came out at 13 µM. Besides, in the data set on FAO, the “FAO SC 150” value was “FAS (IC50) Not Tested CPT I Stim Not Tested FAO SC 150 Neg SA/MH (MIC) ug/ml”.

For `CCCCCCCCS(=O)(=O)Nc1ccc(-c2cccc(C(C)=O)c2)cc1C(=O)O`, the IC50 on mtGPAT1 (setting [3]) turned out to be 28 µM. The “FAO SC 150” value in the data set with FAO is “FAS (IC50) Not Tested CPT I Stim Not Tested FAO SC 150 Neg SA/MH (MIC) ug/ml”.

Take `CCCCCCCCS(=O)(=O)Nc1ccc(-c2ccccc2OC)cc1C(=O)O`: on mtGPAT1 (setting [3]), the IC50 came to 23.4 µM. The “FAO SC 150” value in the data set with FAO was “FAS (IC50) Not Tested CPT I Stim Not Tested FAO SC 150 Neg SA/MH (MIC) ug/ml”.

For the molecule `CCCCCCCCS(=O)(=O)Nc1ccc(-c2ccc(Cl)cc2)cc1C(=O)O`, the IC50 at mtGPAT1 (setting [3]) amounted to 13.4 µM. Moreover, the “FAO SC 150” value in the data set with FAO is recorded as “FAS (IC50) Not Tested CPT I Stim Not Tested FAO SC 150 Neg SA/MH (MIC) ug/ml”.

For the molecule `CCCCCCCCS(=O)(=O)Nc1ccc(-c2cccnc2)cc1C(=O)O`, on mtGPAT1 (setting [3]), the IC50 was 76.3 µM. Also, the “FAO SC 150” value with FAO is on record as “FAS (IC50) Not Tested CPT I Stim Not Tested FAO SC 150 Neg SA/MH (MIC) ug/ml”.

Turning to `CCCCCCCCCS(=O)(=O)Nc1cccc(CP(=O)(O)O)c1` [Compound 13d, 3-(Nonylsulfonamido)benzylphosphonic acid], the melting point is 149 to 150 °C. For the same molecule, the IC50 on mtGPAT1 (setting [1]) came out at 23.7 µM.

For `CCCCCCCCS(=O)(=O)Nc1ccc(-c2cccc(F)c2)cc1C(=O)O`, the half-inhibitory concentration (IC50) on mtGPAT1 (setting [3]) stood at 52 µM. In the data set with FAO, the “FAO SC 150” value is “FAS (IC50) Not Tested CPT I Stim Not Tested FAO SC 150 Neg SA/MH (MIC) ug/ml”.
